Structures are written as SMILES. Where only a bound is given, the exact number is not on record here.

The nature of series [1]: Cytotoxicity against human A549-ACE2 cells assessed as cell viability at 0.1 uM incubated for 48 hrs by CellTiter-Glo2 assay relative to control. It counts as toxicity, cell-based. The note with it: a549-ace2, 48 h. (In general: ATP-based viability assays read luminescence as a measure of living cells.)
Series [2] addresses Casein kinase II subunit alpha' (Homo sapiens, UniProt P19784). The series is described as follows: Inhibition of NLuc-fused CSNK2A2 (unknown origin) expressed in HEK293 cells incubated for 2 hrs by NanoBRET assay. It counts as cell-based. (In general: In BRET a luciferase serves as donor, and the signal depends on an acceptor being close.)
Series [3] in a line: Kinetic solubility of compound in PBS at pH 7.4 incubated for 24 hrs by HPLC analysis. It counts as physicochemical. The note with it: buffer, pH 7.4, 24 h.
The test system of another series is Murine hepatitis virus. Nature of the series: Antiviral activity against Murine hepatitis virus infected in mouse DBT cells preincubated with cells for 1 hrs followed by viral infection and measured after 10 hrs by luminometer. It counts as functional, organism-based. The note with it: Murine coronavirus.
A short description of series [4]: Cytotoxicity against human A549-ACE2 cells assessed as cell viability at 1 uM incubated for 48 hrs by CellTiter-Glo2 assay relative to control. In kind it is toxicity, cell-based. The note with it: a549-ace2, 48 h.

Chain of Casein kinase II subunit alpha' (P19784 whole entry, the tested form may be a part): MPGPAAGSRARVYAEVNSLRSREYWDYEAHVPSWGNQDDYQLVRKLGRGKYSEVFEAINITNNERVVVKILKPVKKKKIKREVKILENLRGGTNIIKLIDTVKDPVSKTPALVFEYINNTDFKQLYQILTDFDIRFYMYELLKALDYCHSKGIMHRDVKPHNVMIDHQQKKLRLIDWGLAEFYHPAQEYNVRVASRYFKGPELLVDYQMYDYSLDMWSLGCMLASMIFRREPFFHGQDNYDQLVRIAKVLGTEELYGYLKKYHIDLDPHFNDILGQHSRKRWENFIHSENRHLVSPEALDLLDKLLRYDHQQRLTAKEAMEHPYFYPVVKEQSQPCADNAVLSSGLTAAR

Broadly, the IC50 is the concentration needed to halve the response being measured. Turning to `N#Cc1cnn2c(NC3CC3)cc(Nc3cc(-n4cnnc4)ccc3F)nc12`, the Activity is reported as 86% in series [1] and 59% in series [4]. The half-maximal inhibitory concentration (IC50) is 3.16 nM in series [2] and 6.31 nM with Murine hepatitis virus. In series [3], this molecule registered a Kinetic_solubility of 1.5 µg/mL.
As to `N#Cc1cnn2c(NC3CC3)cc(Nc3ccc(N4CC[C@H](N)C4)c(-n4cnnc4)c3)nc12`, the values for the 50% inhibitory concentration (IC50) (in series [2]; with Murine hepatitis virus) were 158 nM and 398 nM, respectively. This molecule also registered a Kinetic_solubility in series [3] of 49 µg/mL. In addition, in series [4], the Activity came to 85%.
`C[C@@H](N)CN(C)c1ccc(Nc2cc(NC3CC3)n3ncc(C#N)c3n2)cc1-n1cnnc1`: the values for the Activity in series [1] and in series [4] were 95% and 91%, respectively. Besides, the half-maximal inhibitory concentration (IC50) in series [2] was 251 nM; in the series on Murine hepatitis virus, 501 nM. For the same molecule, the Kinetic_solubility in series [3] turned out to be 62 µg/mL.
Consider `CN(CCN)c1ccc(Nc2cc(NC3CC3)n3ncc(C#N)c3n2)cc1-n1cnnc1`, for which the Activity was found to be 99% in series [1] and 87% in series [4]. In addition, the IC50 in series [2] was 251 nM; with Murine hepatitis virus it was 398 nM. For the same molecule, in series [3], the Kinetic_solubility was 45 µg/mL.
Regarding `N#Cc1cnn2c(NC3CC3)cc(Nc3cccc(-c4cnn[nH]4)c3)nc12`, the Activity in series [1] was found to be 100%; in series [4], 85%. Besides, the IC50 in series [2] was 10 nM; with Murine hepatitis virus, 79.4 nM.
As to `N#Cc1cnn2c(NC3CCC3)cc(Nc3cccc(-n4cnnc4)c3)nc12`, the IC50 in series [2] was 7.94 nM; in the series with Murine hepatitis virus it was 79.4 nM. This molecule yielded a Kinetic_solubility in series [3] of 0.18 µg/mL. The Activity in series [4] is given as 93%.
In the case of `CNCCN(C)c1ccc(Nc2cc(NC3CC3)n3ncc(C#N)c3n2)cc1-n1cnnc1`, the IC50 in series [2] is 126 nM; in the series with Murine hepatitis virus, 1000 nM. Further, in series [3], the Kinetic_solubility was 16 µg/mL.
Taken in the same sequence, the figures for `CN(CCN)c1cc(F)c(Nc2cc(NC3CC3)n3ncc(C#N)c3n2)cc1-n1cnnc1` were 1000 nM, 2510 nM and 41 µg/mL.
Taken in the same sequence, the figures for `N#Cc1cnn2c(Nc3ccn(CCN4CCCC4)n3)cc(Nc3cccc(-n4cnnc4)c3)nc12` were 25.1 nM, 1580 nM and 35 µg/mL.
Taken in the same sequence, the figures for `CN(C)CCn1cnc(Nc2cc(Nc3cccc(-n4cnnc4)c3)nc3c(C#N)cnn23)c1` were 501 nM, over 10000 nM and 30 µg/mL.
For the molecule `CN[C@H]1CCCN(c2ccc(Nc3cc(NC4CC4)n4ncc(C#N)c4n3)cc2-n2cnnc2)C1`, the IC50 in series [2] was 126 nM; with Murine hepatitis virus, 2000 nM. The Kinetic_solubility in series [3] is 56 µg/mL.
On to `CNCCn1cnc(Nc2cc(Nc3cccc(-n4cnnc4)c3)nc3c(C#N)cnn23)c1`, for which the IC50 in series [2] is 1580 nM; in the series with Murine hepatitis virus, over 10000 nM. The same molecule had a Kinetic_solubility in series [3] of 8.4 µg/mL.
The corresponding values for `CN[C@@H]1CCCN(c2ccc(Nc3cc(NC4CC4)n4ncc(C#N)c4n3)cc2-n2cnnc2)C1` are 794 nM, 3160 nM and 63 µg/mL.
The corresponding values for `N#Cc1cnn2c(Nc3cn(CCN4CCCC4)cn3)cc(Nc3cccc(-n4cnnc4)c3)nc12` are 200 nM, over 10000 nM and 37 µg/mL.
The corresponding values for `CN(CCN1CCOCC1)c1ccc(Nc2cc(NC3CC3)n3ncc(C#N)c3n2)cc1-n1cnnc1` are 79.4 nM, 631 nM and 25 µg/mL.
`N#Cc1cnn2c(NC3CC3)cc(Nc3cc(-n4cnnc4)ccn3)nc12`: the figures for the IC50 (in series [2]; in the series on Murine hepatitis virus) were 10 nM and 158 nM, respectively. Besides, the Kinetic_solubility in series [3] is 1.2 µg/mL. In series [4], the Activity was found to be 96%.
As to `CN(CCO)c1cc(F)c(Nc2cc(NC3CC3)n3ncc(C#N)c3n2)cc1-n1cnnc1`, the half-inhibitory concentration (IC50) in series [2] is 63.1 nM; in the series with Murine hepatitis virus, 2510 nM. The molecule further returned a Kinetic_solubility in series [3] of 2.6 µg/mL.

For the origin of these results see ChEMBL document CHEMBL5500423, “More than an Amide Bioisostere: Discovery of 1,2,4-Triazole-containing Pyrazolo[1,5-a]pyrimidine Host CSNK2 Inhibitors for Combatting β-Coronavirus Replication” (J Med Chem, 2024).
